Data from PubChem BioAssay AID1963875 (Molecular Pharmacology Branch, DTP, NCI, 2024).

Test system: KRAS-mutant PDC complex spheroid viability
Test: Anticancer human tumor 186277-243-T-J2-PDC patient-derived colon adenocarcinoma cell line growth inhibition [KRAS2]
Conditions: for viability, T/C: stronger effect = lower value
Method in brief: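 KRAS-mutant tumor cells were grown as spheroids with HUVEC endothelial cells and human MSCs as stroma. Targeted agents were tested alone and with KRAS pathway inhibitors. Doses started at or near clinical Cmax, or 10 microM, descending half-log.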

[1] = curve of first compound, second compound 0.1 µM
[2] = curve of first compound, second compound 0.316 µM
[3] = curve of first compound, second compound 1 µM
[4] = curve of first compound, second compound 3.16 µM
[5] = curve of first compound, second compound 10 µM
[6] = second compound 0.1 µM, first compound 0.0316 µM
[7] = second compound 0.1 µM, first compound 0.1 µM
[8] = second compound 0.1 µM, first compound 0.316 µM
[9] = second compound 0.1 µM, first compound 1 µM
[10] = second compound 0.1 µM, first compound 3.16 µM
[11] = second compound 0.1 µM, first compound 10 µM
[12] = second compound 0.316 µM, first compound 0.0316 µM
[13] = second compound 0.316 µM, first compound 0.1 µM
[14] = second compound 0.316 µM, first compound 0.316 µM
[15] = second compound 0.316 µM, first compound 1 µM
[16] = second compound 0.316 µM, first compound 3.16 µM
[17] = second compound 0.316 µM, first compound 10 µM
[18] = second compound 1 µM, first compound 0.0316 µM
[19] = second compound 1 µM, first compound 0.1 µM
[20] = second compound 1 µM, first compound 0.316 µM
[21] = second compound 1 µM, first compound 1 µM
[22] = second compound 1 µM, first compound 3.16 µM
[23] = second compound 1 µM, first compound 10 µM
[24] = second compound 3.16 µM, first compound 0.0316 µM
[25] = second compound 3.16 µM, first compound 0.1 µM
[26] = second compound 3.16 µM, first compound 0.316 µM
[27] = second compound 3.16 µM, first compound 1 µM
[28] = second compound 3.16 µM, first compound 3.16 µM
[29] = second compound 3.16 µM, first compound 10 µM
[30] = second compound 10 µM, first compound 0.0316 µM
[31] = second compound 10 µM, first compound 0.1 µM
[32] = second compound 10 µM, first compound 0.316 µM
[33] = second compound 10 µM, first compound 1 µM
[34] = second compound 10 µM, first compound 3.16 µM
[35] = second compound 10 µM, first compound 10 µM
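Wherever viability, T/C is given: viability read after seven days of compound exposure; 100% = DMSO vehicle-treated spheroids so lower means less viable.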

Row | SMILES | IC50 [1] | IC50 [2] | IC50 [3] | IC50 [4] | IC50 [5] | viability, T/C [6] | viability, T/C [7] | viability, T/C [8] | viability, T/C [9] | viability, T/C [10] | viability, T/C [12] | viability, T/C [13] | viability, T/C [14] | viability, T/C [15] | viability, T/C [16] | viability, T/C [18] | viability, T/C [19] | viability, T/C [20] | viability, T/C [21] | viability, T/C [22] | further results
1 | CC(C)NCC(C(=O)N1CCN(c2ncnc3c2C(C)CC3O)CC1)c1ccc(Cl)cc1 (stereo unspecified) + CNCc1ccccc1-c1csc(C(C)Nc2nc(C)nc3cc(OC)c(OC)cc23)c1 | 585 nM | 469 nM | 298 nM | < 31.6 nM | < 31.6 nM | 111% | 106% | 61.2% | 37.8% | 24.1% | 121% | 96.6% | 60.3% | 29.4% | 19.6% | 109% | 92.4% | 44.9% | 24.1% | 13.3% | viability, T/C [11]: 11.2%; viability, T/C [17]: 10.6%; viability, T/C [23]: 8.81%; viability, T/C [24]: 0.41%; viability, T/C [25]: 9.82%; viability, T/C [26]: 0.48%; viability, T/C [27]: 1.02%; viability, T/C [28]: 0.58%; viability, T/C [29]: 0.47%; viability, T/C [30]: 0.14%; viability, T/C [31]: 0.12%; viability, T/C [32]: 0.12%; viability, T/C [33]: 0.12%; viability, T/C [34]: 0.13%; viability, T/C [35]: 0.2%
2 | Cn1nccc1Nc1nccc(-c2cc3c(s2)C(C)(C)N(CCN2CCOCC2)C3=O)n1 |  |  |  |  |  |  |  |  |  |  |  |  |  |  |  |  |  |  |  |  | viability, T/C (compound 0.0316 µM): 101% [middle of 5 runs]; viability, T/C (compound 0.1 µM): 90.8% [middle of 5 runs]; viability, T/C (compound 1 µM): 16% [middle of 5 runs]; viability, T/C (compound 3.16 µM): 6.29% [middle of 5 runs]; viability, T/C (compound 10 µM): 6.23% [middle of 5 runs]; IC50 (curve of compound): 383 nM [middle of 5 runs]
3 | COc1cc(Nc2ncc3c(n2)-c2ccc(Cl)cc2C(c2c(F)cccc2OC)=NC3)ccc1C(=O)O + COc1cc2nc(C)nc(NC(C)c3cc(N)cc(C(F)(F)F)c3)c2cc1OC1CCOC1 | < 31.6 nM | < 31.6 nM | < 31.6 nM | < 31.6 nM | < 31.6 nM | 30.3% | 29% | 26.4% | 29.2% | 38.8% | 26.8% | 27.7% | 26.1% | 27.4% | 33.7% | 26.8% | 24.7% | 23.5% | 25.7% | 31.3% | viability, T/C [11]: 38.7%; viability, T/C [17]: 36.6%; viability, T/C [23]: 34.2%; viability, T/C [24]: 22.2%; viability, T/C [25]: 22.6%; viability, T/C [26]: 22.1%; viability, T/C [27]: 20.6%; viability, T/C [28]: 24.3%; viability, T/C [29]: 22.4%; viability, T/C [30]: 14.1%; viability, T/C [31]: 17.8%; viability, T/C [32]: 10.2%; viability, T/C [33]: 7.56%; viability, T/C [34]: 14%; viability, T/C [35]: 7.41%
4 | CC1COCCN1c1cc(-c2ccnn2C)c2ccnc(-c3ccn[nH]3)c2n1 (stereo unspecified) + COc1cc2nc(C)nc(NC(C)c3cc(N)cc(C(F)(F)F)c3)c2cc1OC1CCOC1 | < 10 nM | 21.2 nM | 19.9 nM | 19.9 nM | 18.9 nM | 4.38% | 3.41% | 2.71% | 2.04% | 1.41% | 24.3% | 3.67% | 2.88% | 2.23% | 3.71% | 17.2% | 4.4% | 3.51% | 3.19% | 3.55% | viability, T/C (second compound 0.1 µM, first compound 0.01 µM): 5.03%; viability, T/C (second compound 0.316 µM, first compound 0.01 µM): 98.5%; viability, T/C (second compound 1 µM, first compound 0.01 µM): 98.9%; viability, T/C (second compound 3.16 µM, first compound 0.01 µM): 99.5%; viability, T/C [24]: 16.4%; viability, T/C [25]: 3.55%; viability, T/C [26]: 2.87%; viability, T/C [27]: 1.93%; viability, T/C [28]: 3.19%; viability, T/C (second compound 10 µM, first compound 0.01 µM): 103%; viability, T/C [30]: 7.22%; viability, T/C [31]: 3.43%; viability, T/C [32]: 2.48%; viability, T/C [33]: 2.25%; viability, T/C [34]: 2.72%
